Structures can show the parent of a compound that is named as a salt.
Tests used:
Type in all cases: physicochemical
[1] = stability test towards water, water content after storage; conditions: open container and sealed ampoule, four weeks at 40° C. and 75% relative humidity
From the text: (§1) The exceptional stability of the orotate salt of aliskiren towards water may also be shown in stability tests.

[2] = dynamic vapour sorption (DVS-1), isothermal water absorption or loss as a function of relative humidity; conditions: for Change in Mass (%) Desorption / Change in Mass (%) Sorption: 25° C., 2 hours after equilibration
Method: A clear characterisation of this property is achieved by means of isothermal measurements over predetermined time intervals and predetermined relative humidity using dynamic vapour sorption (DVS-1 from the company Surface Measurement Systems LTD, Marlow, Buckinghamshire, UK). Table 2 illustrates the mass change, i.e. the water absorption or loss as a function of relative humidity at 25° C. for a sample of the orotate salt of aliskiren and for a period of 2 hours after equilibration at each humidity level. The change in mass during the sorption and desorption cycle are shown. The measurement error of this sorption method based on thermogravimetry is about 0.1%.

[3] = 1-Week Chemical Stability Test, total impurities by HPLC-UV 230 nm
From the text: as §1

water content [1]	moisture uptake ([2]; at 80% r.h.) [%]	hygroscopicity ([2]; from moisture uptake at 80% r.h.)	Change in Mass (%) Desorption ([2]; relative humidity 0%) [%]	Change in Mass (%) Sorption ([2]; relative humidity 0%) [%]	Change in Mass (%) Desorption ([2]; relative humidity 30%) [%]	Change in Mass (%) Sorption ([2]; relative humidity 30%) [%]	Change in Mass (%) Desorption ([2]; relative humidity 50%) [%]	Change in Mass (%) Sorption ([2]; relative humidity 50%) [%]	Change in Mass (%) Desorption ([2]; relative humidity 70%) [%]	Change in Mass (%) Sorption ([2]; relative humidity 70%) [%]	Change in Mass (%) Desorption ([2]; relative humidity 90%) [%]	Change in Mass (%) Sorption ([2]; relative humidity 90%) [%]	Change in Mass (%) Desorption ([2]; relative humidity 95%) [%]	Change in Mass (%) Sorption ([2]; relative humidity 95%) [%]	Total Impurities (HPLC-UV, 230 nm), % ([3]; 1 week, 50 C. sealed) [%]	Total Impurities (HPLC-UV, 230 nm), % ([3]; 1 week, 50 C./75% RH) [%]	Total Impurities (HPLC-UV, 230 nm), % ([3]; 1 week, 80 C. sealed) [%]	Total Impurities (HPLC-UV, 230 nm), % ([3]; 1 week, 80 C./75% RH) [%]	Total Impurities (HPLC-UV, 230 nm), % ([3]; Unstressed) [%]	Compound
remains constant	0.4	slightly-hygroscopic	0.011	0.000	0.611	0.133	0.852	0.214	1.326	0.307	2.818	0.673	7.104	7.104	0.3	0.3	0.4	0.5	0.3	COCCCOc1cc(CC(C[C@H](N)[C@@H](O)CC(C(=O)NCC(C)(C)C(N)=O)C(C)C)C(C)C)ccc1OC (stereo partly shown) [orotate salt of aliskiren]
–	–	–	–	–	–	–	–	–	–	–	–	–	–	–	1.1	9.3	18.1	64.3	1.1	COCCCOc1cc(C[C@@H](C[C@H](N)[C@@H](O)C[C@H](C(=O)NCC(C)(C)C(N)=O)C(C)C)C(C)C)ccc1OC [HemiFumarate, aliskiren hemifumarate, reference compound]

From patent publication US20100130616A1, “SALT OF ALISKIREN WITH OROTIC ACID” (NOVARTIS AG, priority 2006, published 2010)
